Measurements reported in ChEMBL document CHEMBL1147052, “Innate immunity and transcription of MGAT-III and Toll-like receptors in Alzheimer's disease patients are improved by bisdemethoxycurcumin” (Proc Natl Acad Sci U S A, 2007).
Active and inactive are the calls of the source.

Experiments:
Assay type in all cases: functional, cell-based
Conditions in all cases: Homo sapiens
Macrophage = experiment: Induction of amyloid beta phagocytosis in macrophages from Alzheimer's disease patient at 0.1 uM
PBMC [1] = experiment: Upregulation of MGAT3 transcription in PBMC from Alzheimer's disease patient
PBMC [2] = experiment: Upregulation of TLR transcription in PBMC from Alzheimer's disease patient
PBMC [3] = experiment: Increase in TLR2 protein expression in PBMC from Alzheimer's disease patient at 0.1 uM by flow cytometry
PBMC [4] = experiment: Increase in TLR3 protein expression in PBMC from Alzheimer's disease patient at 0.1 uM by flow cytometry
PBMC [5] = experiment: Increase in TLR4 protein expression in PBMC from Alzheimer's disease patient at 0.1 uM by flow cytometry

Measured: Activity

O=C(/C=C/c1ccc(O)cc1)CC(=O)/C=C/c1ccc(O)cc1
active: all assays above
